Laboratory results published in PMC6273036, “N-Alkoxyphenylhydroxynaphthalenecarboxamides and Their Antimycobacterial Activity” (Molecules, 2016).
Values after ≈ are worked out from the molar mass of the structure shown.

Columns and labels:
[1] = tested on: human monocytic leukemia THP-1 cells; experiment: In vitro antiproliferative assay (WST-1); conditions: THP-1, 24 h, read-out: IC50 (antiproliferative activity)
Protocol: Human monocytic leukemia THP-1 cells were used for in vitro antiproliferative assay. Cells were obtained from the European Collection of Cell Cultures (ECACC, Salisbury, UK) and routinely cultured in RPMI 1640 medium supplemented with 10% fetal bovine serum, 2% L-glutamine, 1% penicillin and streptomycin at 37 °C with 5% CO2. Cells were passaged at approximately one-week intervals. Antiproliferative activity of the compounds was determined using a Water Soluble Tetrazolium Salts-1 (WST-1, 2-(4-iodophenyl)-3-(4-nitrophenyl)-5-(2,4-disulfophenyl)-2H-tetrazolium) assay kit (Roche Diagnostics, Mannheim, Germany) according to the manufacturer’s instructions. The tested compounds were dissolved in DMSO and added in five increasing concentrations (0.37, 1.1, 3.3, 10 and 30 μM) to the cell suspension in the culture RPMI 1640 medium. The maximum concentration of DMSO in the assays never exceeded 0.1%. Subsequently, the cells were incubated for 24 h at 37 °C with 5% CO2. For WST-1 assays, cells were seeded into 96-well plates (5 × 10^4 cells/well in 100 μL culture medium) in triplicate in serum-free RPMI 1640 medium, and measurements were taken 24 h after the treatment with the compounds. The median inhibition concentration values, IC50, were deduced through the production of a dose-response curve. All data were evaluated using GraphPad Prism 5.00 software (GraphPad Software, San Diego, CA, USA).

[2] = tested on: Mycobacterium tuberculosis H37Ra ATCC 25177; experiment: In vitro antimycobacterial evaluation (alamarBlue, MIC) against M. tuberculosis; assay type: cell-based; conditions: 168 h, M. tuberculosis H37Ra ATCC 25177, MIC = 90% or greater (IC90) reduction of growth, 7 days
Protocol: The evaluation of the in vitro antimycobacterial activity of the compounds was performed against Mycobacterium tuberculosis H37Ra ATCC 25177 (MT), M. kansasii DSM 44162 (MK) and M. smegmatis ATCC 700084 (MS), see Table 1. To lower risk and make manipulation in the laboratory easier, surrogate model pathogens for M. tuberculosis can be used in laboratory studies. Avirulent M. tuberculosis strain H37Ra is very closely related to and has similar pathology as human-infecting M. tuberculosis strains, making it a good model for study especially because of the lower risk for laboratory workers. M. kansasii, the most virulent of the NTM, causes nontuberculous mycobacterial lung infections, which are now very common, and can be indistinguishable from tuberculosis. M. smegmatis is an ideal representative of a fast-growing nonpathogenic microorganism, particularly useful in studying basic cellular processes of special relevance to pathogenic mycobacteria. Therefore additionally M. kansasii and M. smegmatis were chosen as model species for screening of prospective antimycobacterial drugs to control mycobacterial diseases. The potency of the compounds was expressed as the minimum inhibitory concentration (MIC) that is defined for mycobacteria as 90% or greater (IC90) reduction of growth in comparison with the control.
Mycobacterium tuberculosis H37Ra ATCC 25177 was grown in Middlebrook broth (MB), supplemented with Oleic-Albumin-Dextrose-Catalase (OADC) supplement (Becton, Dickinson & Comp., Franklin Lakes, NJ, USA) and mycobactin J (2 μg/mL). At log phase growth, a culture sample (10 mL) was centrifuged at 15,000 rpm/20 min using a bench top centrifuge (Model CR 4-12, Jouan Inc., Winchester, VA, USA). Following the removal of the supernatant, the pellet was washed in fresh Middlebrook 7H9GC broth and re-suspended in fresh, ODAC-supplemented MB (10 mL). The turbidity was adjusted to match McFarland standard No. 1 (3 × 10^8 cfu) with MB broth. A further 1:20 dilution of the culture was then performed in MB broth. The antimicrobial susceptibility of M. tuberculosis was investigated in a 96-well plate format. In these experiments, sterile deionised water (300 µL) was added to all outer-perimeter wells of the plates to minimize evaporation of the medium in the test wells during incubation. Each evaluated compound (100 µL) was incubated with M. tuberculosis (100 µL). Dilutions of each compound were prepared in duplicate. For all synthesized compounds, final concentrations ranged from 1000 μg/mL to 8 μg/mL. All compounds were dissolved in DMSO, and subsequent dilutions were made in supplemented MB. The plates were sealed with parafilm and incubated at 37 °C for 7 days. Following incubation, a 10% addition of alamarBlue (AbD Serotec, Kidlington, UK) was mixed into each well, and readings at 570 nm and 600 nm were taken, initially for background subtraction and subsequently after 24 h re-incubation. The background subtraction is necessary for strongly coloured compounds, where the colour may interfere with the interpretation of any colour change. For non-interfering compounds, a blue colour in the well was interpreted as the absence of growth, and a pink colour was scored as growth.
The minimum inhibitory concentration (MIC) was defined as the lowest concentration of the compound at which no visible bacterial growth was observed, i.e., the MIC is the lowest concentration that prevented a visual colour change from blue to pink. MIC is defined for mycobacteria as 90% or greater (IC90) reduction of growth in comparison with the control. The MIC/IC90 value is routinely and widely used in bacterial assays and is a standard detection limit according to the Clinical and Laboratory Standards Institute (CLSI, www.clsi.org). Rifampicin and isoniazid (Sigma-Aldrich) were used as the standards as they are clinically used antimycobacterial drugs.

[3] = tested on: M. smegmatis ATCC 700084; experiment: In vitro antimycobacterial evaluation (broth dilution micro-method, MIC) against M. smegmatis; assay type: cell-based; conditions: Mycolicibacterium smegmatis, ATCC700084, 72 h; Mycobacterium smegmatis ATCC 700084; MIC = IC90; 3 days incubation, visual
[4] = tested on: Mycobacterium kansasii DSM 44162; experiment: In vitro antimycobacterial evaluation (broth dilution micro-method, MIC) against M. kansasii; assay type: cell-based; conditions: DSM44162, 168 h, M. kansasii DSM 44162, MIC = IC90, 7 days incubation, visual

SMILES	IC50 [1] [µM]	MIC [2] [µM]	MIC [3] [µM]	MIC [4] [µM]
NNC(=O)c1ccncc1 [INH, isoniazid, reference compound]	> 30	58 (≈ 7.95 µg/mL)		
CC(C)Oc1ccccc1NC(=O)c1c(O)ccc2ccccc12 [Compound 6a, 2-Hydroxy-N-[2-(prop-2-yloxy)phenyl]naphthalene-1-carboxamide]	> 30	31 (≈ 9.96 µg/mL)	796 (≈ 256 µg/mL)	99 (≈ 31.8 µg/mL)
COc1cccc(NC(=O)c2ccc3ccccc3c2O)c1 [Compound 9b, 1-hydroxy-N-(3-methoxyphenyl)naphthalene-2-carboxamide]		852 (≈ 250 µg/mL)	873 (≈ 256 µg/mL)	873 (≈ 256 µg/mL)
CCOc1ccc(NC(=O)c2ccc3ccccc3c2O)cc1 [Compound 10c, N-(4-Ethoxyphenyl)-1-hydroxynaphthalene-2-carboxamide]		813 (≈ 250 µg/mL)	832 (≈ 256 µg/mL)	832 (≈ 256 µg/mL)
CCOc1cccc(NC(=O)c2ccc3ccccc3c2O)c1 [Compound 10b, N-(3-Ethoxyphenyl)-1-hydroxynaphthalene-2-carboxamide]	3.02 ± 0.96	813 (≈ 250 µg/mL)	832 (≈ 256 µg/mL)	52 (≈ 16 µg/mL)
COc1cccc(NC(=O)c2c(O)ccc3ccccc23)c1 [Compound 2b, 2-hydroxy-N-(3-methoxyphenyl)naphthalene-1-carboxamide]		852 (≈ 250 µg/mL)		
CCCCOc1ccccc1NC(=O)c1ccc2ccccc2c1O [Compound 12a, N-(2-Butoxyphenyl)-1-hydroxynaphthalene-2-carboxamide]		745 (≈ 250 µg/mL)	763 (≈ 256 µg/mL)	763 (≈ 256 µg/mL)
O=C(Nc1ccccc1)c1ccc2ccccc2c1O [Compound 8, 1-Hydroxy-N-phenylnaphthalene-2-carboxamide]	> 30	97 (≈ 25.5 µg/mL)	243 (≈ 64 µg/mL)	15 (≈ 3.95 µg/mL)
CC(C)Oc1ccc(NC(=O)c2ccc3ccccc3c2O)cc1 [Compound 13c, 1-Hydroxy-N-[4-(prop-2-yloxy)phenyl]naphthalene-2-carboxamide]	9.39 ± 1.39	778 (≈ 250 µg/mL)	796 (≈ 256 µg/mL)	49 (≈ 15.7 µg/mL)
O=C(Nc1ccccc1)c1c(O)ccc2ccccc12 [Compound 1, 2-Hydroxy-N-phenylnaphthalene-1-carboxamide]	> 30	94 (≈ 24.7 µg/mL)		15 (≈ 3.95 µg/mL)
COc1ccccc1NC(=O)c1c(O)ccc2ccccc12 [Compound 2a, 2-hydroxy-N-(2-methoxyphenyl)naphtha-lene-1-carboxamide]		852 (≈ 250 µg/mL)	873 (≈ 256 µg/mL)	873 (≈ 256 µg/mL)
CC(C)Oc1ccccc1NC(=O)c1ccc2ccccc2c1O [Compound 13a, 1-Hydroxy-N-[2-(prop-2-yloxy)phenyl]naphthalene-2-carboxamide]		778 (≈ 250 µg/mL)	796 (≈ 256 µg/mL)	796 (≈ 256 µg/mL)
COc1ccc(NC(=O)c2c(O)ccc3ccccc23)cc1 [Compound 2c, 2-hydroxy-N-(4-methoxyphenyl)naphthalene-1-carboxamide]		852 (≈ 250 µg/mL)		
CCCOc1ccccc1NC(=O)c1ccc2ccccc2c1O [Compound 11a, 1-Hydroxy-N-(2-propoxyphenyl)naphthalene-2-carboxamide]		778 (≈ 250 µg/mL)	796 (≈ 256 µg/mL)	24 (≈ 7.71 µg/mL)
COc1ccc(NC(=O)c2ccc3ccccc3c2O)cc1 [Compound 9c, 1-hydroxy-N-(4-methoxyphenyl)naphthalene-2-carboxamide]		852 (≈ 250 µg/mL)	873 (≈ 256 µg/mL)	873 (≈ 256 µg/mL)
CCOc1cccc(NC(=O)c2c(O)ccc3ccccc23)c1 [Compound 3b, N-(3-Ethoxyphenyl)-2-hydroxynaphthalene-1-carboxamide]		813 (≈ 250 µg/mL)	416 (≈ 128 µg/mL)	208 (≈ 63.9 µg/mL)
COc1ccccc1NC(=O)c1ccc2ccccc2c1O [Compound 9a, 1-hydroxy-N-(2-methoxyphenyl)naphtha-lene-2-carboxamide]		852 (≈ 250 µg/mL)	873 (≈ 256 µg/mL)	873 (≈ 256 µg/mL)
CCOc1ccccc1NC(=O)c1ccc2ccccc2c1O [Compound 10a, N-(2-Ethoxyphenyl)-1-hydroxynaphthalene-2-carboxamide]		813 (≈ 250 µg/mL)	832 (≈ 256 µg/mL)	832 (≈ 256 µg/mL)
